Literature values as cited in patent US8993486B2, “Ultra-high throughput screening methods to detect synergistic drug interactions” (Lankenau Institute for Medical Research Chemical Genomics …, priority 2010, dated 2015).

Tested on: diverse fungal pathogens

| Compound | synergy with ketoconazole (KTC) activity (checkerboard assay, diverse fungal pathogens) | fungicidal activity alone (low dosage) |
| --- | --- | --- |
| beauvericin | dramatically synergized KTC activity |  |
| CC(=O)N1CCN(c2ccc(OCC3COC(Cn4ccnc4)(c4ccc(Cl)cc4Cl)O3)cc2)CC1 (centres unmarked) [ketoconazole] |  | little detectable fungicidal activity |
